Source: article PMC4007060 (Journal of neuroimmune pharmacology : the official journal …, 2010)
Entries after “also recorded” stand apart in the source; their conditions may differ. Where two headings read alike, the source gives them in different places.

How the values were obtained:
[1] = system: mouse spleen cells, antibody response to sheep red blood cells; conditions: morphine positive control; ref Rahim et al, 2001; cited from earlier work
ORL-1 [2] = conditions: in vitro; ref Knoflach et al, 1996; Reinscheid et al, 1995; cited from earlier work
mouse spleen cells [3] = conditions: 2 hrs pretreatment, same PFC assay; ref Eisenstein et al, 1995; cited from earlier work
ORL-1 [4] = conditions: in vivo; ref Chen et al, 2001; cited from earlier work
human monocytes = conditions: 10^−6 M naloxone; ref Trombella et al, 2005; cited from earlier work
[5] = system: C-1 A-APA (affinity-purified rabbit antiserum to N/OFQ); test: Solid-phase RIA, displacement of; type: binding; conditions: for cross-reactivity in RIA: competitive peptide 1 × 10^−6 M to 1.5 × 10^−12 M
[6] = system: C-4 A-APA (affinity-purified rabbit antiserum to N/OFQ); test: Solid-phase RIA, displacement of; type: binding; conditions: for cross-reactivity in RIA: competitive peptide 1 × 10^−6 M to 1.5 × 10^−12 M
C-4 A-APA = test: Dot-blot cross-reactivity, C-4 A-APA; type: binding, rabbit; conditions: membrane-spotted peptides
C-1 A-APA = test: Dot-blot cross-reactivity, C-1 A-APA; type: binding, rabbit; conditions: membrane-spotted peptides
[7] = system: Con A activated rat splenocytes; conditions: ref Miller and Fulford, 2007, cited from earlier work
astrocyte cultures = conditions: lipopolysaccharide in vitro; ref Fu et al, 2007; cited from earlier work
astrocytes = conditions: peripheral administration of an inflammatory stimulus; ref Fu et al, 2007; cited from earlier work
delta opioid receptor = conditions: ref Mollereau et al, 1994; Pan et al, 1995; cited from earlier work
kappa opioid receptor = conditions: ref Mollereau et al, 1994; Pan et al, 1995; cited from earlier work
ORL-1 receptor = conditions: cited from earlier work
human T cells = conditions: cited from earlier work
[8] = system: mouse spleen cells, antibody response to sheep red blood cells; conditions: s.c. Alzet pump, 48 hr
[9] = system: human monocytes and monocyte-like cell lines (CCL2/MCP-1, CCL5/RANTES); conditions: CCL2/MCP-1 and CCL5/RANTES; ref Kaminsky and Rogers, 2008; cited from earlier work
[10] = system: mouse spleen (TNF-α and IFN-γ mRNA); conditions: in vivo; cited from earlier work
mouse spleen cells [11] = test: Primary in vitro plaque-forming cell; type: cell-based, mouse (C3HeB/FeJ); conditions: primary PFC assay
mu opioid receptor = conditions: ref Mollereau et al, 1994; Pan et al, 1995; cited from earlier work

## CN1CC[C@]23c4c5ccc(O)c4O[C@H]2[C@@H](O)C=C[C@H]3[C@H]1C5 [morphine]
[1]
  dose producing maximal immunosuppression: 0.5 mg/kg/day

## C=CCN1CC[C@]23c4c5ccc(O)c4O[C@H]2C(=O)CC[C@@]3(O)[C@H]1C5 [naloxone]
ORL-1 [2]
  naloxone sensitivity of ORL-1 activity: naloxone insensitive
Mouse spleen cells [3]
  block of immunosuppressive effect of morphine and U50488: completely blocked the immunosuppressive effect of morphine and of the kappa agonist, U50488
ORL-1 [4]
  naloxone sensitivity of ORL-1 activity: naloxone insensitive
Human monocytes
  effect of naloxone on chemotaxis induced by the peptide: did not block human monocyte chemotaxis

## BAM-18
[5]
  cross-reactivity in RIA: no significant cross-reactivity; also recorded: No significant cross-reactivities were detected
[6]
  cross-reactivity in RIA: did not show significant cross-reactivity; also recorded: No significant cross-reactivities were detected
C-4 A-APA
  dot-blot reactivity: not to classical opioid
C-1 A-APA
  dot-blot reactivity: not to classical opioid

## Dynorphin A1-17
[5]
  cross-reactivity in RIA: no significant cross-reactivity
[5]; listed as Dynorphin A1-17
  cross-reactivity in RIA: No significant cross-reactivities were detected
[6]
  cross-reactivity in RIA: did not show significant cross-reactivity
[6]; listed as Dynorphin A1-17
  cross-reactivity in RIA: No significant cross-reactivities were detected

## Tyr-Gly-Gly-Gly-Met [Met-enkephalin, Met-Enkephalin]
C-4 A-APA
  dot-blot reactivity: not to classical opioid
C-1 A-APA
  dot-blot reactivity: not to classical opioid

## Tyr-Gly-Gly-Phe-Leu [Leu-enkephalin, Leu-Enkephalin]
[5]
  cross-reactivity in RIA: no significant cross-reactivity
[5]; listed as Leu-Enkephalin
  cross-reactivity in RIA: No significant cross-reactivities were detected
[6]
  cross-reactivity in RIA: did not show significant cross-reactivity
[6]; listed as Leu-Enkephalin
  cross-reactivity in RIA: No significant cross-reactivities were detected
C-4 A-APA
  dot-blot reactivity: not to classical opioid
C-1 A-APA
  dot-blot reactivity: not to classical opioid

## nociceptin/orphanin FQ [N/OFQ]
[7]; Con A activated rat splenocytes
  inhibition of proliferation: inhibit the proliferation
[7]; in vitro
  inhibition of IL-2 production: inhibit the proliferation of Con A activated rat splenocytes, as well as the production of IL-2
Astrocyte cultures
  mRNA for TNF-α, IL-1β, and IL-6: decrease expression of mRNA
astrocytes
  mRNA for TNF-α, IL-1β, and IL-6: decrease expression of mRNA
Delta opioid receptor
  binding: does not bind
Kappa opioid receptor
  binding: does not bind
ORL-1 receptor
  forskolin-induced cAMP accumulation: inhibition of forskolin-induced cAMP accumulation
[5]; solid-phase RIA, C-1 A-APA
  IC80: 2.9 nM
Human T cells
  CD28 expression: up-regulated expression of the co-stimulatory molecule CD28
  CTLA-4 expression: upregulate CTLA-4
  PGE2 induction: induced PGE2
  proliferation: increased proliferation
[8]
  dose of maximal immunosuppression: 0.05 mg/kg/day
[9]
  chemokine production: suppress the production of chemokine proteins
[6]; read-out: smallest measurable displacement, IC20, solid-phase RIA, C-4 A-APA
  IC20: 0.062 nM
[6]; solid-phase RIA, C-4 A-APA
  IC80: 0.71 nM
[10]
  mRNA for TNF-α and IFN-γ in spleens: increased levels of mRNA
C-4 A-APA
  dot-blot reactivity: showed reactivity to the three nociceptin peptides
Mouse spleen cells [11]
  suppression of antibody formation: suppressed antibody formation to sheep red blood cells; also recorded: suppresses both the secondary and primary plaque-forming cell assay
C-1 A-APA
  dot-blot reactivity: showed reactivity to the three nociceptin peptides
Mu opioid receptor
  binding: does not bind
